This note sets out measurements from patent publication US6916797B2, “α-arylethylpiperazine derivatives as neurokinin antagonists” (UCB, S.A., priority 2000, dated 2005).

The experiment concerns the target NK1 receptors (Homo sapiens, UniProt P25103). Briefly: Binding of [4,5-3H-Leu10] substance P to human recombinant NK1 receptors expressed in CHO cell membranes. The following applies: pIC50 = -log IC50, concentration inhibiting by 50% the specific binding of [4,5-3H] substance P; tested as the free base/salt given in c1. Further details: host or cells: CHO cells. The procedure:
The following test was designed to assess the affinity of test substances for human recombinant NK1 receptors expressed in Chinese Hamster Ovarian (CHO) cells.
CHO cells expressing the human recombinant NK1 receptor are used. The cells were obtained from Euroscreen (Brussels, Belgium).
Cells expressing the human NK1 receptor are routinely cultured in 175 cm2 flasks containing 75 ml of medium F12 (Ham) enriched with 2 mmol/l L-glutamine, 100 IU/ml penicilline, 100 μg/ml streptomycine, 1% sodium pyruvate, 2.5 μg/ml fungizone amphotericin B, 400 μg/ml geneticin and supplemented with 10% foetal calf serum. […] When subcultured, the cells are seeded at a concentration of 50,000 cells/cm2.
Confluent cells are gently scraped and resuspended in 25 ml of phosphate buffered saline without calcium and magnesium. The cellular suspension is centrifuged at 1500×g for 3 min (4° C.). The cell pellet is homogenized in a 15 mmol/l Tris-HCl (pH 7.5) buffer, 2 mmol/l MgCl2, 0.3 mmol/l EDTA, 1 mmol/l EGTA. The crude membrane fraction is collected by two consecutive centrifugation steps at 40,000×g for 25 min (4° C.). The final pellet is resuspended in 20 mmol/l Tris-HCl (pH 7.4), 250 mmol/l sucrose buffer at a protein concentration ranging from 2 to 6 mg/ml and stored in liquid nitrogen. • 1.2.2. Test Design
The inhibition constant (Ki) is determined using increasing concentrations of the test substance. The concentration range usually encompasses 6 log units with variable steps (0.3 to 1 log). Assays are performed in mono- or duplicate.
Membranes are incubated at 25° C. for 60 min in 0.5 ml of a 50 mmol/l Tris-HCl buffer (pH 7.4) containing 2 mmol/l MgCl2, 100 μg/ml bacitracine, 0.1 to 0.4×10^−9 mol/l of [4,5^3H-Leu^10] substance P (specific activity>100 Ci/mmol) and increasing concentrations of the test substance. […] Membrane-bound and free radioligands are separated by rapid filtration through glass fiber filters (equivalent to Whatman GF/C or GF/B; VEL, Belgium) presoaked in 0.1% polyethyleneimine to reduce non specific binding. Samples and filters are rinsed by at least 6 ml of 50 mmol/l Tris-HCl (pH 7.4) buffer.
Initial values for the different variables may be provided by the experimenter.

Sequence of NK1 receptors (P25103 whole entry): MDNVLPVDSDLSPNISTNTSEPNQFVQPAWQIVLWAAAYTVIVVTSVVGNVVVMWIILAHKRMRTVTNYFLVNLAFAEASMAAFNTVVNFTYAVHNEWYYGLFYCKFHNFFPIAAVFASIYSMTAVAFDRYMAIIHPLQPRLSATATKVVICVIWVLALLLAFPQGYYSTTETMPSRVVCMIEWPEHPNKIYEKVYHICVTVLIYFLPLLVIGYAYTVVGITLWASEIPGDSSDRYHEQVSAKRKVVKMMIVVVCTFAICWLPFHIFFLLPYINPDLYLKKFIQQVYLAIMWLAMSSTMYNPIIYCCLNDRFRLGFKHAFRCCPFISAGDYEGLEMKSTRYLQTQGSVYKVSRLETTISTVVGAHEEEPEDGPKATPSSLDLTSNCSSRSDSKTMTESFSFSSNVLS

Broadly, the IC50 is the concentration that gives 50% inhibition. On to `CCOC(=O)CCCN1CCN(C(COCc2cc(C(F)(F)F)cc(C(F)(F)F)c2)c2ccccc2)CC1` (racemic) [Compound 138, 4-{4-[2-(3,5-Bis-trifluoromethyl-benzyloxy)-1-phenyl-ethyl]-piperazin-1-yl}-butyric acid ethyl ester], for which the concentration for half-maximal inhibition (IC50) was 0.01 µM. The value for `COC(=O)CCCCN1CCN(C(COCc2cc(C(F)(F)F)cc(C(F)(F)F)c2)c2ccccc2)CC1` (racemic) [Compound 139] was 0.00631 µM. The figure for `CCOC(=O)CCCCCN1CCN(C(COCc2cc(C(F)(F)F)cc(C(F)(F)F)c2)c2ccccc2)CC1` (racemic) [Compound 141] is 0.00794 µM. With `CC(C)OC(=O)CCCCCN1CCN(C(COCc2cc(C(F)(F)F)cc(C(F)(F)F)c2)c2ccccc2)CC1` (racemic) [Compound 142], the IC50 was 0.00794 µM. The figure for `NC(=O)COCCN1CCN(C(COCc2cc(C(F)(F)F)cc(C(F)(F)F)c2)c2ccccc2)CC1` (racemic) [Compound 147] is 0.01 µM; for `NC(=O)CCCCCN1CCN(C(COCc2cc(C(F)(F)F)cc(C(F)(F)F)c2)c2ccccc2)CC1` (racemic) [Compound 150] it is 0.00501 µM. The value for `N#CCCCN1CCN(C(COCc2cc(C(F)(F)F)cc(C(F)(F)F)c2)c2ccccc2)CC1` (racemic) [Compound 151] was 0.02 µM; that for `N#CCCCCN1CCN(C(COCc2cc(C(F)(F)F)cc(C(F)(F)F)c2)c2ccccc2)CC1` (racemic) [Compound 152] was 0.0126 µM. The value for `N#CCOCCN1CCN(C(COCc2cc(C(F)(F)F)cc(C(F)(F)F)c2)c2ccccc2)CC1` (racemic) [Compound 155] was 0.0158 µM; that for `N#CCCCCCN1CCN(C(COCc2cc(C(F)(F)F)cc(C(F)(F)F)c2)c2ccccc2)CC1` (racemic) [Compound 156] was 0.00794 µM.

As for `OCCN1CCN(C(COCc2cc(C(F)(F)F)cc(C(F)(F)F)c2)c2ccccc2)CC1` (racemic) [Compound 157, 2-{4-[2-(3,5-Bis-trifluoromethyl-benzyloxy)-1-phenyl-ethyl]-piperazin-1-yl}-ethanol], the IC50 is 0.00631 µM. As to `O=S1(=O)CCN(CCN2CCN(C(COCc3cc(C(F)(F)F)cc(C(F)(F)F)c3)c3ccccc3)CC2)CC1` (racemic) [Compound 161], the IC50 is 0.00794 µM.

On to `FC(F)(F)c1cc(COCC(c2ccccc2)N2CCN(CCN3CCOCC3)CC2)cc(C(F)(F)F)c1` (racemic) [Compound 162], for which the half-maximal inhibitory concentration (IC50) was 0.00794 µM. Consider `FC(F)(F)c1cc(COCC(c2ccccc2)N2CCN(Cc3ccccn3)CC2)cc(C(F)(F)F)c1` (racemic) [Compound 170], for which the concentration for half-maximal inhibition (IC50) was 0.0501 µM. The figure for `O=C1c2ccccc2C(=O)N1CCN1CCN(C(COCc2cc(C(F)(F)F)cc(C(F)(F)F)c2)c2ccccc2)CC1` (racemic) [Compound 171] is 0.0794 µM.

As for `COc1cc(COCCN2CCN(C(COCc3cc(C(F)(F)F)cc(C(F)(F)F)c3)c3ccccc3)CC2)cc(OC)c1OC` (racemic) [Compound 175], the IC50 was 0.00501 µM.

In the case of `NC(=O)CN1CCN(C(COCc2cc(C(F)(F)F)cc(C(F)(F)F)c2)c2cccc3ccccc23)CC1` (racemic) [Compound 191], the half-inhibitory concentration (IC50) was 0.0631 µM. The value for `COC(=O)CN1CCN(C(COCc2cc(Br)cc(I)c2)c2ccccc2)CC1` (racemic) [Compound 208] was 0.0631 µM.

`CC(C)(C)NC(=O)CN1CCN(C(COCc2cc(C(F)(F)F)cc(C(F)(F)F)c2)c2ccccc2)CC1` (racemic) [Compound 293]: the concentration for half-maximal inhibition (IC50) was 0.0631 µM. The figure for `CN(C(=O)CN1CCN(C(COCc2cc(C(F)(F)F)cc(C(F)(F)F)c2)c2ccccc2)CC1)C(C)(C)C` (racemic) [Compound 294] is 0.0126 µM. The figure for `CC(C)OC(=O)CN1CCN([C@H](COCc2cc(C(F)(F)F)cc(C(F)(F)F)c2)c2ccccc2)CC1` [Compound 136] is 0.0794 µM; for `NC(=O)CN1CCN(C(COCc2cc(C(F)(F)F)cc(C(F)(F)F)c2)c2ccccc2)CC1` (stereo not drawn) [Compound 143] it is 0.0398 µM; for `NC(=O)CN1CCN([C@H](COCc2cc(C(F)(F)F)cc(C(F)(F)F)c2)c2ccccc2)CC1` [Compound 144, (S)-2-{4-[2-(3,5-Bis-trifluoromethyl-benzyloxy)-1-phenyl-ethyl]-piperazin-1-yl}-acetamide] it is 0.0398 µM. The figure for `NC(=O)CN1CCN([C@@H](COCc2cc(C(F)(F)F)cc(C(F)(F)F)c2)c2ccccc2)CC1` [Compound 145] is 0.0316 µM. For the compound `NC(=O)CCN1CCN(C(COCc2cc(C(F)(F)F)cc(C(F)(F)F)c2)c2ccccc2)CC1` (stereo not drawn) [Compound 146], the concentration for half-maximal inhibition (IC50) is 0.0158 µM. In the case of `NC(=O)COCCN1CCN([C@H](COCc2cc(C(F)(F)F)cc(C(F)(F)F)c2)c2ccccc2)CC1` [Compound 148], the half-maximal inhibitory concentration (IC50) was 0.0398 µM. The figure for `NC(=O)COCCN1CCN([C@@H](COCc2cc(C(F)(F)F)cc(C(F)(F)F)c2)c2ccccc2)CC1` [Compound 149] is 0.0631 µM; for `OCCOCCN1CCN([C@H](COCc2cc(C(F)(F)F)cc(C(F)(F)F)c2)c2ccccc2)CC1` [Compound 158] it is 0.00794 µM; for `CCOP(=O)(CCN1CCN([C@H](COCc2cc(C(F)(F)F)cc(C(F)(F)F)c2)c2ccccc2)CC1)OCC` [Compound 164] it is 0.0398 µM.

Turning to `COc1cc(CN2CCN([C@H](COCc3cc(C(F)(F)F)cc(C(F)(F)F)c3)c3ccccc3)CC2)cc(OC)c1OC` [Compound 173], the concentration for half-maximal inhibition (IC50) is 0.0251 µM. The figure for `COc1cc(CN2CCN([C@@H](COCc3cc(C(F)(F)F)cc(C(F)(F)F)c3)c3ccccc3)CC2)cc(OC)c1OC` [Compound 174] is 0.0398 µM. On to `COc1cc(COCCN2CCN(C(COCc3cc(C(F)(F)F)cc(C(F)(F)F)c3)c3ccccc3)CC2)cc(OC)c1OC` (stereo not drawn) [Compound 176], for which the half-maximal inhibitory concentration (IC50) was 0.0251 µM. The value for `FC(F)(F)c1cc(COCC(c2ccccc2)N2CCN(c3ccnc4ccccc34)CC2)cc(C(F)(F)F)c1` (stereo not drawn) [Compound 227] was 0.0398 µM; that for `NC(=O)CCCN1CCN(C(COCc2cc(C(F)(F)F)cc(C(F)(F)F)c2)c2ccccc2)CC1` (stereo not drawn) [Compound 288, 4-{4-[2-(3,5-Bis-trifluoromethyl-benzyloxy)-1-phenyl-ethyl]-piperazin-1-yl}-butyramide] was 0.00501 µM; that for `CC(=O)NC(CCN1CCN(C(COCc2cc(C(F)(F)F)cc(C(F)(F)F)c2)c2ccccc2)CC1)c1ccccc1` (stereo not drawn) [Compound 308, N-(3-{4-[2-(3,5-Bis-trifluoromethyl-benzyloxy)-1-phenyl-ethyl]-piperazin-1-yl}-1-phenyl-propyl)-acetamide] was 0.0126 µM. The figure for `O=C(CCCCCN1CCN(C(COCc2cc(C(F)(F)F)cc(C(F)(F)F)c2)c2ccccc2)CC1)NO` (stereo not drawn) [Compound 315, 6-{4-[2-(3,5-Bis-trifluoromethyl-benzyloxy)-1-phenyl-ethyl]-piperazin-1-yl}-hexanoic acid hydroxyamide] is 0.00501 µM.
